Reference: paper PMC11904993, “Humanized Candida and NanoBiT Assays Expedite Discovery of Bdf1 Bromodomain Inhibitors With Antifungal Potential” (Advanced Science, 2025)
Several values for one entry are separate records, joined by “and”; a condition that tells them apart may be missing. Equal entries are not always repeated. Where two headings read alike, the source gives them in different places.

Key:
[1] = test system: C. glabrata expressing humanized Bdf1 (Brd4 BDs); assay: Growth inhibition in liquid media, humanized C. glabrata strains; settings: for %Growth: Fig 3F, humanized BDF1-flag; for EC50: Nakaseomyces glabratus
Protocol: Growth on Liquid Media with C. glabrata Lab Strains: Cells were grown at 30 °C in SC+M+C‐U medium (SC medium with 5 mM methionine, 0.25 mM cysteine, without uracil) to an OD600 of 0.5–0.8. […] Plates were incubated at 30 °C and OD600 was measured using a Multiskan FC Microplate Photometer (Thermo Fisher).

[2] = target: T1, CaBdf1 BD2 (Candida albicans, UniProt Q5A4W8); assay: HTRF assay, inhibition of H4ac4 peptide binding; set-up: species or system C. albicans
T1 construct: BD1 (residues 193–327) and BD2 (residues 361–501) from CaBdf1 (Uniprot ID Q5A4W8); made in house; host or cells: E. coli BL21(DE3)

[3] = target: T2, Bdf1/Swc4 (Saccharomyces cerevisiae, UniProt P35817); assay: NanoBiT assay, control pair; type: cell-based, S. cerevisiae; set-up: remaining activity: dose or concentration left out as unconfirmed
T2 construct: expressed in transfected cells; host or cells: S. cerevisiae
Protocol: Yeast strains were distributed in 96‐well microplates containing SC(MSG)‐U medium (SC‐U medium with 0.1% monosodium glutamate instead of ammonium sulfate as a nitrogen source) and grown at 30 °C. 40 µL of exponentially growing cells were transferred in white 96‐well half‐area microplates (ProxiPlate Plus, Greiner Bio‐One) previously filled with 40 µL per well of SC(MSG) containing 100 µM furimazine. The microplates were then incubated for 10 min in the dark before the luminescence signals were recorded using a microplate reader (Ensight, PerkinElmer). Luminescence measurements were performed for 1 s per well at a distance of 0.1 mm between the plate and the detector. The luminescence values were normalized with the optical density (OD600) of the corresponding cultures. For NanoBiT assays with BET inhibitors, yeast cultures were grown overnight at 30 °C in SC(MSG) medium in the presence of serial dilutions of 24c and I‐BET726. Overnight cultures were diluted 5 fold in SC(MSG) and incubated for 1 h before luminescence was recorded as previously indicated. Luminescence values for each condition were normalized using the average of the luminescence recorded for the Bdf1/Swc4 and Bmh1/Bmh2 controls.

[4] = target: CgBdf1 BD1 (Candida glabrata, UniProt Q6FWV7); assay: HTRF assay, inhibition of H4ac4 peptide binding; set-up: species or system C. glabrata; settings: for HTRF signal, normalized (Figure 5A data): 240 min
[5] = target: CgBdf1 BD2 (Candida glabrata, UniProt Q6FWV7); assay: biochemical; type: binding, C. glabrata
CgBdf1 BD2, sequence (Q6FWV7 entry or part of it): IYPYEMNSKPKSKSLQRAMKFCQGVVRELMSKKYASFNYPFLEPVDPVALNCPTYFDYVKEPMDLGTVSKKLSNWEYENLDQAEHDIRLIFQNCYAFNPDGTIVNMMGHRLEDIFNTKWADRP

CgBdf1 BD1, sequence (Q6FWV7 entry or part of it): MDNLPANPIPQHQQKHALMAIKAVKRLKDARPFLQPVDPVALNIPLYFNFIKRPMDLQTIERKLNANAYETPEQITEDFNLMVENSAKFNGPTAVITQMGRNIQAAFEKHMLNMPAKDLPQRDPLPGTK
T2 sequence (P35817 whole entry): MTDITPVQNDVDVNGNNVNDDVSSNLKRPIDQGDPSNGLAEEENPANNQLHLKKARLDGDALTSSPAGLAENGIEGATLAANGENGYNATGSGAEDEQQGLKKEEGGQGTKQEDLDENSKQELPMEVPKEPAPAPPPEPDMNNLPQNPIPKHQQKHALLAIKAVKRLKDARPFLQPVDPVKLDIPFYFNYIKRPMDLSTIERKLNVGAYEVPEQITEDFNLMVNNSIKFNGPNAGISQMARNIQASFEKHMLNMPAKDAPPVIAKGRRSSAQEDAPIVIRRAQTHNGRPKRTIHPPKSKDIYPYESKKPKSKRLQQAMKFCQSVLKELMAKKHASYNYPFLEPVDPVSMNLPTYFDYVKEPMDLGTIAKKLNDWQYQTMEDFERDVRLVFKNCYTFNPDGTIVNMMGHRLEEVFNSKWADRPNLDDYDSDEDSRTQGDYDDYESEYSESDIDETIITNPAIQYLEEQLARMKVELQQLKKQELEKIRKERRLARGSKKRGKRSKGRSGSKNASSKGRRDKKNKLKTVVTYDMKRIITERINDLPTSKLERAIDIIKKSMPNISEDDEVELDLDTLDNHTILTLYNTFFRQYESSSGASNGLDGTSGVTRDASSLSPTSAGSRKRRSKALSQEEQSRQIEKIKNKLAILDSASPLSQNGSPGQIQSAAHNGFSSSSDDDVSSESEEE
T2 sequence (P53201 whole entry, further chain): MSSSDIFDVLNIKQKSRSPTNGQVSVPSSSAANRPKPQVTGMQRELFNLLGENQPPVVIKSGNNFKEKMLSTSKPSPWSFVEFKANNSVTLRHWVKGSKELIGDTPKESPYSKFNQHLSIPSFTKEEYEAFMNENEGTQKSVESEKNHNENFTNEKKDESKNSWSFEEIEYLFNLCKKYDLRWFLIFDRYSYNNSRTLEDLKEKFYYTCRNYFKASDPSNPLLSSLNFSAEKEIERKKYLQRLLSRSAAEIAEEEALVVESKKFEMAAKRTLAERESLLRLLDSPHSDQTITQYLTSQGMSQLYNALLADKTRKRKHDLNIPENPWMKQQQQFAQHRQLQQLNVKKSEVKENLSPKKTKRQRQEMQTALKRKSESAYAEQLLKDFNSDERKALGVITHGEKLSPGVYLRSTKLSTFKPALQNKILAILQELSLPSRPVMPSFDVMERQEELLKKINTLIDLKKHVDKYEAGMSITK
T1 sequence (Q5A4W8 361-501): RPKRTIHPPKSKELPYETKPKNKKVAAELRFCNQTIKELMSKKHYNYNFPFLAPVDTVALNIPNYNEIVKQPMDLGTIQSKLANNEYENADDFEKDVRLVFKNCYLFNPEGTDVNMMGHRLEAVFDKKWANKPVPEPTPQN

In the case of `CC(=O)N1c2ccc(-c3ccc(C(=O)O)cc3)cc2C(Nc2ccc(Cl)cc2)CC1C` (centres unmarked) [I-BET726], the “%Growth” value ([1]; 0.3704 µM) is reported as 5.63% and 5.85% and 8.26%, the “%Growth” value ([1]; 1.1111 µM) is reported as 2.92% and 3.13% and 4.77% and the “%Growth” value ([1]; 3.3333 µM) is reported as 1.04% and 1.36% and 2.75%. For the same molecule, the EC50 ([1]; read-out: EC50 (μM) growth inhibition, Fig 3F, strain bdf1-hBD1-FLAG) was 0.25 ± 0.03 µM, the EC50 ([1]; read-out: EC50 (μM) growth inhibition, Fig 3F, strain bdf1-hBD2-FLAG) was 0.019 ± 0.002 µM and the EC50 ([1]; read-out: EC50 (μM), C. glabrata (hum), Fig 5C, both BDs humanized) was 0.043 ± 0.024 µM. For the same molecule, the EC50 ([1]; read-out: EC50 growth inhibition, strain expressing humanized Bdf1) was 0.014 µM, the remaining activity at 0.0021 µM ([2]; CaBD2, 2.10 nM, read-out: HTRF signal, normalized (Figure 5A data)) was 108% and the remaining activity at 0.01311 µM ([2]; CaBD2, 13.11 nM, read-out: HTRF signal, normalized (Figure 5A data)) was 98.4%. For the same molecule, the remaining activity at 0.03277 µM ([2]; CaBD2, 32.77 nM, read-out: HTRF signal, normalized (Figure 5A data)) was 95.1%, the remaining activity at 0.2048 µM ([2]; CaBD2, 204.8 nM, read-out: HTRF signal, normalized (Figure 5A data)) was 61.4% and the remaining activity at 0.512 µM ([2]; CaBD2, 512 nM, read-out: HTRF signal, normalized (Figure 5A data)) was 25.6%. For the same molecule, the remaining activity at 1.28 µM ([2]; CaBD2, 1280 nM, read-out: HTRF signal, normalized (Figure 5A data)) was 11.4%, the IC50 ([2]; Fig 5A, four replicates, read-out: IC50 (μM) BD2, C. alb. Bdf1) was 0.63 ± 0.05 µM and the remaining activity at 0.00524 µM ([2]; read-out: HTRF signal, normalized (Figure 5A data)) was 102%. For the same molecule, the remaining activity at 24.41 µM ([3]; Bdf1-SmBiT, Swc4-LgBiT, 0.02441 mM, Fig 4C, read-out: Normalized nanoBiT signal) was 95%, the remaining activity at 97.66 µM ([3]; Bdf1-SmBiT, Swc4-LgBiT, 0.09766 mM, Fig 4C, read-out: Normalized nanoBiT signal) was 93% and the remaining activity at 195.31 µM ([3]; Bdf1-SmBiT, Swc4-LgBiT, 0.19531 mM, Fig 4C, read-out: Normalized nanoBiT signal) was 95%. The remaining activity at 390.63 µM ([3]; Bdf1-SmBiT, Swc4-LgBiT, 0.39063 mM, Fig 4C, read-out: Normalized nanoBiT signal) was 91%, the remaining activity at 781.25 µM ([3]; Bdf1-SmBiT, Swc4-LgBiT, 0.78125 mM, Fig 4C, read-out: Normalized nanoBiT signal) was 90% and the remaining activity ([3]; Bdf1-SmBiT, Swc4-LgBiT, […], Fig 4C, read-out: Normalized nanoBiT signal) was 99%. For the same molecule, the “inhibition of NanoBiT signal, Bdf1/Swc4” value ([3]; control pair independent of Bdf1 BDs) was “not observed”, the remaining activity at 48.83 µM ([3]; read-out: Normalized nanoBiT signal) was 92% and the “HTRF signal, normalized (Figure 5A data)” value ([4]; 0.00524 µM) was 100.65 and 90.91 and 103.41. It also gave an activity at 0.01311 µM ([4]; 4 h, CgBD1, 13.11 nM, read-out: HTRF signal, normalized (Figure 5A data)) of 104%, an activity at 0.03277 µM ([4]; 4 h, CgBD1, 32.77 nM, read-out: HTRF signal, normalized (Figure 5A data)) of 101% and an activity at 0.08192 µM ([4]; 4 h, CgBD1, 81.92 nM, read-out: HTRF signal, normalized (Figure 5A data)) of 100%. It also gave an activity at 0.2048 µM ([4]; 4 h, CgBD1, 204.8 nM, read-out: HTRF signal, normalized (Figure 5A data)) of 95.5%, an activity at 0.512 µM ([4]; 4 h, CgBD1, 512 nM, read-out: HTRF signal, normalized (Figure 5A data)) of 85.3% and an activity at 3.2 µM ([4]; 4 h, CgBD1, 3200 nM, read-out: HTRF signal, normalized (Figure 5A data)) of 40.5%. The activity at 8 µM ([4]; 4 h, CgBD1, 8000 nM, read-out: HTRF signal, normalized (Figure 5A data)) was 10.1%, the activity at 0.00524 µM ([4]; 4 h, read-out: HTRF signal, normalized (Figure 5A data)) was 103% and the “HTRF signal, normalized (Figure 5A data)” value ([4]; CgBD1, 2.10 nM, 0.0021 µM) was 106.06 and 99.07 and 83.43 and 98.63. For the same molecule, the “HTRF signal, normalized (Figure 5A data)” value ([4]; CgBD1, 13.11 nM, 0.01311 µM) was 90.77 and 95.51 and 103.15, the “HTRF signal, normalized (Figure 5A data)” value ([4]; CgBD1, 32.77 nM, 0.03277 µM) was 93.49 and 101.00 and 99.77 and the “HTRF signal, normalized (Figure 5A data)” value ([4]; CgBD1, 204.8 nM, 0.2048 µM) was 107.13 and 88.05 and 91.40. The “HTRF signal, normalized (Figure 5A data)” value ([4]; CgBD1, 512 nM, 0.512 µM) was 93.88 and 86.26 and 86.89, the “HTRF signal, normalized (Figure 5A data)” value ([4]; CgBD1, 1280 nM, 1.28 µM) was 77.62 and 66.65 and 70.52 and the “HTRF signal, normalized (Figure 5A data)” value ([4]; CgBD1, 3200 nM, 3.2 µM) was 48.37 and 45.98 and 46.29. For the same molecule, the “HTRF signal, normalized (Figure 5A data)” value ([4]; CgBD1, 8000 nM, 8 µM) was 13.26 and 14.56 and 18.60, the IC50 ([4]; Fig 5A, four replicates, read-out: IC50 (μM) BD1, C. gla. Bdf1) was 2.52 ± 0.14 µM and the activity at 0.0021 µM ([5]; 24 h, CgBD2, 2.10 nM, read-out: HTRF signal, normalized (Figure 5A data)) was 98.3%. For the same molecule, the activity at 0.01311 µM ([5]; 24 h, CgBD2, 13.11 nM, read-out: HTRF signal, normalized (Figure 5A data)) was 91.8%, the activity at 0.03277 µM ([5]; 24 h, CgBD2, 32.77 nM, read-out: HTRF signal, normalized (Figure 5A data)) was 80.2% and the activity at 0.08192 µM ([5]; 24 h, CgBD2, 81.92 nM, read-out: HTRF signal, normalized (Figure 5A data)) was 54.9%. The activity at 0.2048 µM ([5]; 24 h, CgBD2, 204.8 nM, read-out: HTRF signal, normalized (Figure 5A data)) was 20.4%, the activity at 0.512 µM ([5]; 24 h, CgBD2, 512 nM, read-out: HTRF signal, normalized (Figure 5A data)) was 9.19% and the activity at 1.28 µM ([5]; 24 h, CgBD2, 1280 nM, read-out: HTRF signal, normalized (Figure 5A data)) was 5.95%. It also gave an activity at 0.00524 µM ([5]; 24 h, read-out: HTRF signal, normalized (Figure 5A data)) of 93.2% and an IC50 ([5]; Fig 5A, four replicates, read-out: IC50 (μM) BD2, C. gla. Bdf1) of 0.085 ± 0.012 µM.
